From US11795511B2, “Methods and compositions for the prognosis and treatment of relapsed leukemia” (NEW YORK UNIVERSITY, priority 2012, dated 2023)

Experiments:
Reh cells [1] = assay: Apoptosis assay (Annexin V-PE / 7-AAD, flow cytometry) of Reh cells transduced with wild-type or mutant cN-II after drug treatment; format: cell-based; conditions: Reh cells transduced with lentiviruses encoding wild-type or mutant (Arg238Trp, Arg367Gln or Ser445Phe) cN-II; incubation 24-72 h
Description: Cell Culture and Drug Treatment. Reh cells obtained from the American Type Culture Collection (ATCC) were grown in RPMI1640 supplemented with 10% FBS, 10 mM HEPES and 1% penicillin-streptomycin under 5% CO2 at 37° C. 293T cells (ATCC) were grown in DMEM supplemented with 10% FBS and 1% penicillin-streptomycin under 5% CO2 at 37° C. 6-mercaptopurine, 6-thioguanine, cytarabine, doxorubicin, gemcitabine and prednisolone (Sigma) were serially diluted in RPMI before use at the indicated concentrations.
Transient Transfection and Lentivirus Gene Transfer. NT5C2 DNA for wild-type and mutant (Arg238Trp, Arg367Gln and Ser445Phe) was cloned into the lentiviral vector pLenti using SalI and XbaI restriction sites. All plasmids were sequence verified. cDNA constructs were transfected into 293T cells along with helper plasmids using the calcium phosphate method to produce replication-defective virus. Supernatant was harvested 48 h later and used to transduce Reh cells (whose NT5C2 sequence was verified as wild type) supplemented with […] polybrene (Sigma). Virus-containing medium was replaced 24 h after infection. Cells were monitored 72 h after infection for infection efficiency by the detection of GFP-positive cells using a FACScan (BD). Infected cells were plated (200,000 cells per well in […] of medium) in triplicate for drug treatment with 6-mercaptopurine, 6-thioguanine, cytarabine, doxorubicin, gemcitabine and prednisolone (Sigma). Cells were incubated for 24-72 h and then assayed for apoptosis by Annexin V-PE and 7-AAD staining (Annexin V-PE Apoptosis Detection kit, BD Pharmingen) followed by flow cytometry analysis using a FACScan. The percentages of cells positive and negative for Annexin V and/or 7-AAD staining were analyzed with FlowJo software (version 7.6.1, Tree Star). Data were plotted relative to results obtained with no chemotherapy treatment, and error bars represent the standard deviation from three independent determinations. Cells (1×10^6) were harvested for protein at the time of plating. Briefly, cells were pelleted at 200 g for 5 min and resuspended in […] of RIPA buffer with 1× protease inhibitors (GE Healthcare), incubated on ice for 15 min and centrifuged at 15,000 g for 10 min at 4° C. Protein was subjected to electrophoresis on 9% SDS-Tris acrylamide gels and transferred to PVDF membranes. Membranes were incubated with a 1:5,000 dilution of antibody to Flag (F3165, Sigma), incubated with a 1:10,000 dilution of HRP-conjugated secondary antibody to mouse (GE Healthcare) and developed using ECL (GE Healthcare).

Reh cells [2] = assay: HPLC determination of thioguanine nucleotides in Reh cells after 6-mercaptopurine treatment; format: cell-based; conditions: 6-mercaptopurine treatment for 24 h
Description: HPLC determination of nucleotides. Reh cells were transiently infected with NT5C2 constructs. After infection, cells were treated with 10 mM 6-mercaptopurine for 24 h in duplicate. After 24 h, 5×10^6 cells were washed twice with PBS, and cell pellets were frozen at −80° C. Intraceullar accumulation of thioguanine nucleotides (6-mercaptopurine active metabolites) was determined by a reversed-phase liquid chromatography assay as described previously (Dervieux et al., “HPLC Determination of Thiopurine Nucleosides and Nucleotides In Vivo in Lymphoblasts Following Mercaptopurine Therapy,” Clin. Chem. 48: 61-68 (2002), which is hereby incorporated by reference in its entirety).

cN-II = cN-II (Homo sapiens, UniProt P49902); conditions: cited from earlier work
cN-II, sequence (P49902 whole entry): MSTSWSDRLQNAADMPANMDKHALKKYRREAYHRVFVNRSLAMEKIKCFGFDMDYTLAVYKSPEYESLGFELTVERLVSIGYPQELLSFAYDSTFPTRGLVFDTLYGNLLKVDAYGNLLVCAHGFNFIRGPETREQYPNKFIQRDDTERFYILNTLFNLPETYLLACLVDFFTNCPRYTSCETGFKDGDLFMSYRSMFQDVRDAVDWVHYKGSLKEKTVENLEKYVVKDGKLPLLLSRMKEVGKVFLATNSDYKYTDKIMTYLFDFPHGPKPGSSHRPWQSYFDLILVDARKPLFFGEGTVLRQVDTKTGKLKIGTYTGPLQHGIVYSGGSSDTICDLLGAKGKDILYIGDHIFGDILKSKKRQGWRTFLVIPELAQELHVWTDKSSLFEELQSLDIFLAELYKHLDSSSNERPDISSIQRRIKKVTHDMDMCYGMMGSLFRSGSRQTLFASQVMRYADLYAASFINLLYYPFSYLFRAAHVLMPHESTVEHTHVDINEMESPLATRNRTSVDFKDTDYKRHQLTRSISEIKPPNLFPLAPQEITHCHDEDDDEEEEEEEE

Compound	resistance to apoptosis of cells expressing mutant forms of cN-II compared to cells expressing wild-type protein (Reh cells [1])	level of thioguanine nucleotides in cells expressing mutant cN-II compared to control cells expressing wild-type protein or GFP (Reh cells [2])	hydrolysis by the purified enzyme (cN-II)
Sc1ncnc2nc[nH]c12 [6-mercaptopurine]	significantly more resistant to apoptosis	reduction in the level of thioguanine nucleotides	–
Nc1nc2nc[nH]c2c(=S)[nH]1 [6-thioguanine]	significantly more resistant to apoptosis	–	–
Nc1ccn([C@@H]2O[C@H](COP(=O)(O)O)[C@@H](O)[C@@H]2O)c(=O)n1 [araC monophosphate]	–	–	does not hydrolyze
Nc1ccn([C@@H]2O[C@H](CO)[C@@H](O)[C@@H]2O)c(=O)n1 [cytarabine]	no resistance was seen	–	–
COc1cccc2c1C(=O)c1c(O)c3c(c(O)c1C2=O)C[C@@](O)(C(=O)CO)C[C@@H]3O[C@H]1C[C@H](N)[C@H](O)[C@H](C)O1 [doxorubicin]	no resistance was seen	–	–
Nc1ccn([C@@H]2O[C@H](CO)[C@@H](O)C2(F)F)c(=O)n1 [gemcitabine]	no resistance was seen	–	–
C[C@]12C=CC(=O)C=C1CC[C@@H]1[C@@H]2[C@@H](O)C[C@@]2(C)[C@H]1CC[C@]2(O)C(=O)CO [prednisolone]	no resistance was seen	–	–
